Experimental findings from PubChem BioAssay (NCI) are described below.

Structures are written as SMILES.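 Test compounds were applied to cells in 96-well plates for 48 hours at 5 doses. At the GI50, growth is halved. Definition used: TGI = concentration required for complete inhibition of growth.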

Some test systems named below: COLO 205 colon; K-562 leukemia; LOX IMVI melanoma; MALME-3M melanoma; NCI-H522 lung; SF-295 CNS; SK-MEL-28 melanoma; SNB-19 CNS; UACC-257 melanoma; UACC-62 melanoma.
Common to all, as to experiment: NCI tumour cell line growth inhibition, 48 h

With `OCc1cccc(-c2ccc3ncc(-c4nc(NC5CC5)ncc4F)n3c2)c1`, the GI50 is 242 nM in the assay with COLO 205 colon; 434 nM in the assay on K-562 leukemia; 118 nM in the assay with LOX IMVI melanoma; 375 nM with MALME-3M melanoma; 316 nM with NCI-H522 lung; 334 nM in the assay on SF-295 CNS. For the same molecule, the GI50 is 290 nM with SK-MEL-28 melanoma, 323 nM with SNB-19 CNS, 372 nM in the assay with UACC-257 melanoma and 248 nM with UACC-62 melanoma. Also, the TGI with COLO 205 colon was 656 nM; in the assay on K-562 leukemia it was greater than 100000 nM; in the assay on LOX IMVI melanoma, 1210 nM; in the assay on MALME-3M melanoma, 1060 nM; in the assay on NCI-H522 lung, 2340 nM; with SF-295 CNS, 1590 nM. Moreover, the TGI in the assay on SK-MEL-28 melanoma is 998 nM; with SNB-19 CNS, 4180 nM; with UACC-257 melanoma, 1790 nM; with UACC-62 melanoma, 698 nM.
